In patent publication US9120812B2, “Pyrimidooxazocine derivatives as mTOR-inhibitors” (SANOFI, priority 2012, dated 2015):
pIC50: −log10 of the molar value.

Columns and labels:
[1] = biological target: mTOR (human recombinant aa mTOR 1360-2549) (Homo sapiens (Human), UniProt P42345); experiment: mTOR enzymatic test by TR-FRET (phosphorylation of GFP-4EBP1); type: biochemical
Outline: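 After a 30 min room-temperature kinase reaction, EDTA (10 mM final) and Tb-labelled phospho-Thr46 antibody (2 nM final) were added and incubated 60 min. Energy transfer from Tb to phosphorylated GFP-4EBP1 was read at 340 nm excitation, emissions 490/520 nm. Values derive from the 520/490 fluorescence ratio.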

[2] = tested on: U87MG tumour cells; experiment: Test of in vitro proliferation of U87MG tumour cells; type: cell-based; settings: Homo sapiens, U-87 MG, 72 h, U87MG cells, 72 hours; read-out: U87 Cell Proliferation IC50
Procedure: Model 4: Test of in vitro Proliferation of U87MG Tumour Cells.
The cell growth is determined with the reagent CellTiter 96 AQueous One Solution Cell Proliferation Assay from Promega (Cat. No. G3581).

[3] = biological target: PI3Kα (p110α/p85α) (Homo sapiens (Human), UniProt P42336); experiment: PI3Kα enzymatic test by measuring the consumption of ATP; type: biochemical
Chain of PI3Kα (p110α/p85α) (P42336 whole entry): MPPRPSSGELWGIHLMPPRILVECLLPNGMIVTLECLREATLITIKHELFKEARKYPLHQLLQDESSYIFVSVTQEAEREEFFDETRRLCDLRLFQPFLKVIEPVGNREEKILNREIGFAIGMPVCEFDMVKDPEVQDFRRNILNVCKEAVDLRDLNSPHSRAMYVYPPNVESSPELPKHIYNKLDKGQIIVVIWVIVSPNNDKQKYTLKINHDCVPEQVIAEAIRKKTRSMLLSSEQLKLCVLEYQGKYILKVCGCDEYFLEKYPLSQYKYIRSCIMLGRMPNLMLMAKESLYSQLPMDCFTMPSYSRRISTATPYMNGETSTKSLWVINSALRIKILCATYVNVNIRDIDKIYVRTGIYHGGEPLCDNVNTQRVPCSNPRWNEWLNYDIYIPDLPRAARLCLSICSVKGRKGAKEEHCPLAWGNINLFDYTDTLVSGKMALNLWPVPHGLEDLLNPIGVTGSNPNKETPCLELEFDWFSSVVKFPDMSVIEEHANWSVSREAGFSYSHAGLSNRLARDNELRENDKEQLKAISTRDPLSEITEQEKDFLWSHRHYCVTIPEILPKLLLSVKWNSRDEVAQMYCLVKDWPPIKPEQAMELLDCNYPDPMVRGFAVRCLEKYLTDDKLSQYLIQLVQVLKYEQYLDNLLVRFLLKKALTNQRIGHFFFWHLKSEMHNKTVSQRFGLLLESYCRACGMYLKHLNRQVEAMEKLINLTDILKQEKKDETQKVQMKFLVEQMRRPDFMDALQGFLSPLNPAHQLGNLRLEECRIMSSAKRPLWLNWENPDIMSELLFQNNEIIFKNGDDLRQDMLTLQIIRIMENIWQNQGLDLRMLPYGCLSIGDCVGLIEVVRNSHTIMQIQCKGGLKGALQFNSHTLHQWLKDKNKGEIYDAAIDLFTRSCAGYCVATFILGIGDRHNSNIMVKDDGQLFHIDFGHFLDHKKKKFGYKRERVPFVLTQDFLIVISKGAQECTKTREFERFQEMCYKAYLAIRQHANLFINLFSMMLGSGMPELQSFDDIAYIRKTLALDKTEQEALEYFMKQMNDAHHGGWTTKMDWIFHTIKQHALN
Chain of PI3Kα (p110α/p85α) (P27986 whole entry partner): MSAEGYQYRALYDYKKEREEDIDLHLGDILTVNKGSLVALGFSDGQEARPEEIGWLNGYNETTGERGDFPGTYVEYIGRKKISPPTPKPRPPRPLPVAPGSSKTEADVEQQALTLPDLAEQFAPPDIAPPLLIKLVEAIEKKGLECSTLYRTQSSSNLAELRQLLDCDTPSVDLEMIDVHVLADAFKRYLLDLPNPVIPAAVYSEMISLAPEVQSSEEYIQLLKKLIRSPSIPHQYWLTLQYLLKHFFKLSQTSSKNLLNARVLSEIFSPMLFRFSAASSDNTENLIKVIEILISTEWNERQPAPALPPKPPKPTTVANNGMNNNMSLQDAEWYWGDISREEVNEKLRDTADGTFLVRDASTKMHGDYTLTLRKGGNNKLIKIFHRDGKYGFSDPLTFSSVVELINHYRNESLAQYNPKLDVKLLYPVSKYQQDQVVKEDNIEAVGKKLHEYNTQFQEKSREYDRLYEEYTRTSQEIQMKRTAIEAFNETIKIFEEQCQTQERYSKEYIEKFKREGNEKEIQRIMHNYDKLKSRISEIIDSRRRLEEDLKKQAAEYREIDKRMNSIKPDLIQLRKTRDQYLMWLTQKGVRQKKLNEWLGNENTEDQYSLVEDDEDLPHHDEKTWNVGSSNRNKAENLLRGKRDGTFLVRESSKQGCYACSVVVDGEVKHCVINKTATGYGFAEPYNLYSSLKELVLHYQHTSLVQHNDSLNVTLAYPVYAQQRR
Outline: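 ATP consumption read out by KinaseGlo luminescence after a 90 min reaction of 1.7 μg/ml PI3Kα (p110α/p85α) with 2 μM ATP and 50 μM PIP2, buffered at pH 7.5 (Tris, 10 mM MgCl2, 1 mM EGTA, 0.03% Chaps, 1 mM DTT). Threefold dilution series over ≥10 000-fold range yield IC50.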

[4] = tested on: Akt-pS473 in U87MG cells; settings: Homo sapiens, U-87 MG; for IC50: read-out: U87 Akt-pS473 % Inhibition or IC50, nM (IC50), U87MG cells

Chain of mTOR (human recombinant aa mTOR 1360-2549) (P42345 1360-2549): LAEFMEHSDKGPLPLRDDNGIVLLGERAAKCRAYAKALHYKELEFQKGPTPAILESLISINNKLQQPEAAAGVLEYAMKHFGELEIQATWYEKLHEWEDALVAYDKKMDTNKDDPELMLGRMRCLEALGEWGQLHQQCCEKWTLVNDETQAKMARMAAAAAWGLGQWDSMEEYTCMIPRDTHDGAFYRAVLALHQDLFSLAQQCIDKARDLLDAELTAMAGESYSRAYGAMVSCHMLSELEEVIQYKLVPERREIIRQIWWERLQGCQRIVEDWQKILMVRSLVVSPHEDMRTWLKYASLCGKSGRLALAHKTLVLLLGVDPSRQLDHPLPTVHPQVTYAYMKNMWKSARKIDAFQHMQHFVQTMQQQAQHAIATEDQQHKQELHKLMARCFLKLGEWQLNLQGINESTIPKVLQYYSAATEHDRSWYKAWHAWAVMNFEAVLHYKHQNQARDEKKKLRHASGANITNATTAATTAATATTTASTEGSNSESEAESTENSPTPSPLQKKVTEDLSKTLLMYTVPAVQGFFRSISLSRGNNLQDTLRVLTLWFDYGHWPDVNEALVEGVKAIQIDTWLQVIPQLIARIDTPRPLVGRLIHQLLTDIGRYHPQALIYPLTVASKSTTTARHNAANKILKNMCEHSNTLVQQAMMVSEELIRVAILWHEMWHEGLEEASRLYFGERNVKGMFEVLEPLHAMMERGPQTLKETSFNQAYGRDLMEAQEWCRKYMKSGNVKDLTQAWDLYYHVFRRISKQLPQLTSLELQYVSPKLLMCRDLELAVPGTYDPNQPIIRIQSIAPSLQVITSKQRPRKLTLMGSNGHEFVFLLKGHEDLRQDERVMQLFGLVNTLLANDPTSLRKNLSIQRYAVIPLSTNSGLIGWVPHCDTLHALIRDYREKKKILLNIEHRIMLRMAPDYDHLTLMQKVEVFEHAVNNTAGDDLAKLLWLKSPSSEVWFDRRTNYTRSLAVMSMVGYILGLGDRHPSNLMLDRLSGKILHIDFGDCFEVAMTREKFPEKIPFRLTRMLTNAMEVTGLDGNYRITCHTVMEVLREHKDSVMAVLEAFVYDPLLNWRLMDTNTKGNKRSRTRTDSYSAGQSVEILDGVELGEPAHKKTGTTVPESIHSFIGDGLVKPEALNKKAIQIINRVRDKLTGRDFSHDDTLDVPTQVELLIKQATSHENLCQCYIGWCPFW

SMILES | pIC50 [1] | pIC50 [2] | PI3Ka IC50 [3] [nM] | IC50 [4] [nM] | inhibition at 3 µM ([4]; read-out: U87 Akt-pS473 % Inhibition) [%]
COCCN1CC(C)(C)Oc2nc(N3CC4CCC(C3)O4)nc(-c3ccc(NC(=O)Nc4ccc(OC)nc4)c(F)c3)c2C1=O [Example 178, 1-{2-Fluoro-4-[6-(2-methoxyethyl)-8,8-dimethyl-2-(8-oxa-3-azabicyclo[3.2.1]oct-3-yl)-5-oxo-5,6,7,8-tetrahydro-9-oxa-1,3,6-triazabenzocyclohepten-4-yl]phenyl}-3-(6-methoxypyridin-3-yl)urea] | 7.35 | 6.60 | >10000 | 104 | –
COCCN1CC(C)(C)Oc2nc(N3CC4CCC(C3)O4)nc(-c3ccc(NC(=O)Nc4ccon4)c(F)c3)c2C1=O [Example 179, 1-{2-Fluoro-4-[6-(2-methoxyethyl)-8,8-dimethyl-2-(8-oxa-3-azabicyclo[3.2.1]oct-3-yl)-5-oxo-5,6,7,8-tetrahydro-9-oxa-1,3,6-triazabenzocyclohepten-4-yl]phenyl}-3-isoxazol-3-ylurea] | 7.24 | 5.88 | >10000 | 331 | –
COCCN1CC(C)(C)Oc2nc(N3CCOC[C@@H]3C)nc(-c3ccc(NC(=O)Nc4ccon4)cc3)c2C1=O [Example 180, 1-Isoxazol-3-yl-3-{4-[6-(2-methoxyethyl)-8,8-dimethyl-2-((S)-3-methylmorpholin-4-yl)-5-oxo-5,6,7,8-tetrahydro-9-oxa-1,3,6-triazabenzocyclohepten-4-yl]phenyl}urea] | 7.96 | 6.84 | 604 | 65 | –
CCN1CC(C)(C)Oc2nc(N3CCOC[C@@H]3C)nc(-c3ccc(NC(=O)Nc4cc(OC)ccn4)c(F)c3)c2C1=O [Example 181, 1-{4-[6-Ethyl-8,8-dimethyl-2-((S)-3-methylmorpholin-4-yl)-5-oxo-5,6,7,8-tetrahydro-9-oxa-1,3,6-triazabenzocyclohepten-4-yl]-2-fluorophenyl}-3-(4-methoxypyridin-2-yl)urea] | 7.13 | 5.88 | 7650 | 285 | –
CCN1CC(C)(C)Oc2nc(N3CCOC[C@@H]3C)nc(-c3ccc(NC(=O)Nc4cn(C)cn4)c(F)c3)c2C1=O [Example 182, 1-{4-[6-Ethyl-8,8-dimethyl-2-((S)-3-methylmorpholin-4-yl)-5-oxo-5,6,7,8-tetrahydro-9-oxa-1,3,6-triazabenzocyclohepten-4-yl]-2-fluorophenyl}-3-(1-methyl-1H-imidazol-4-yl)urea] | 7.59 | 5.53 | 159 | 407 | –
CCN1CC(C)(C)Oc2nc(N3CC4CCC(C3)O4)nc(-c3ccc(Nc4nnc(-c5ccc(OC)nc5)[nH]4)c(F)c3)c2C1=O [Example 183, 6-Ethyl-4-{3-fluoro-4-[5-(6-methoxypyridin-3-yl)-4H-[1,2,4]triazol-3-ylamino]phenyl}-8,8-dimethyl-2-(8-oxa-3-azabicyclo[3.2.1]oct-3-yl)-7,8-dihydro-6H-9-oxa-1,3,6-triazabenzocyclohepten-5-one] | 6.89 | 6.12 | >10000 | 165 | –
CCN1CC(C)(C)Oc2nc(N3CCOC[C@@H]3C)nc(-c3ccc(NC(=O)Nc4cc(OC)ccn4)cc3)c2C1=O [Example 184, 1-{4-[6-Ethyl-8,8-dimethyl-2-((S)-3-methylmorpholin-4-yl)-5-oxo-5,6,7,8-tetrahydro-9-oxa-1,3,6-triazabenzocyclohepten-4-yl]phenyl}-3-(4-methoxypyridin-2-yl)urea] | 7.92 | 6.43 | 12978 | 65 | –
CCN1CC(C)(C)Oc2nc(N3CC4CCC(C3)O4)nc(-c3ccc(NC(=O)Nc4ccc(C)nc4)c(F)c3)c2C1=O [Example 185, 1-{4-[6-Ethyl-8,8-dimethyl-2-(8-oxa-3-azabicyclo[3.2.1]oct-3-yl)-5-oxo-5,6,7,8-tetrahydro-9-oxa-1,3,6-triazabenzocyclohepten-4-yl]-2-fluorophenyl}-3-(6-methylpyridin-3-yl)urea] | 7.62 | 7.14 | 5680 | 20 | –
CCN1CC(C)(C)Oc2nc(N3CCOC[C@@H]3C)nc(-c3ccc(NC(=O)OCCO)cc3)c2C1=O [Example 186, {4-[6-Ethyl-8,8-dimethyl-2-((S)-3-methylmorpholin-4-yl)-5-oxo-5,6,7,8-tetrahydro-9-oxa-1,3,6-triazabenzocyclohepten-4-yl]phenyl}carbamic acid 2-hydroxyethyl ester] | 7.60 | 6.58 | 3940 | 60 | –
CCN1CC(C)(C)Oc2nc(N3CCOC[C@@H]3C)nc(-c3ccc(NC(=O)Nc4ccc(N5CCOCC5)nc4)c(F)c3)c2C1=O [Example 187, 1-{4-[6-Ethyl-8,8-dimethyl-2-((S)-3-methylmorpholin-4-yl)-5-oxo-5,6,7,8-tetrahydro-9-oxa-1,3,6-triazabenzocyclohepten-4-yl]-2-fluorophenyl}-3-(6-morpholin-4-ylpyridin-3-yl)urea] | 7.43 | 7.17 | 472 | 22 | –
COCCN1CC(C)(C)Oc2nc(N3CCOC[C@@H]3C)nc(-c3ccc(NC(=O)Nc4ccc(F)cc4F)cc3)c2C1=O [Example 188, 1-(2,4-Difluorophenyl)-3-{4-[6-(2-methoxyethyl)-8,8-dimethyl-2-((S)-3-methylmorpholin-4-yl)-5-oxo-5,6,7,8-tetrahydro-9-oxa-1,3,6-triazabenzocyclohepten-4-yl]phenyl}urea] | 7.20 | 6.30 | 2330 | 45 | –
COc1ccc(NC(=O)Nc2ccc(-c3nc(N4CCOC[C@@H]4C)nc4c3C(=O)N(C3CCOCC3)CC(C)(C)O4)cc2F)cn1 [Example 189, 1-{4-[8,8-Dimethyl-2-((S)-3-methylmorpholin-4-yl)-5-oxo-6-(tetrahydropyran-4-yl)-5,6,7,8-tetrahydro-9-oxa-1,3,6-triazabenzocyclohepten-4-yl]-2-fluorophenyl}-3-(6-methoxypyridin-3-yl)urea] | 7.21 | 6.35 | 1890 | 56 | –
CCN1CC(C)(C)Oc2nc(N3CC4CCC(C3)O4)nc(-c3ccc(NC(=O)Nc4ccc(C(=O)NCC(C)(C)O)cc4)cc3)c2C1=O [Example 190, 4-(3-{4-[6-Ethyl-8,8-dimethyl-2-(8-oxa-3-azabicyclo[3.2.1]oct-3-yl)-5-oxo-5,6,7,8-tetrahydro-9-oxa-1,3,6-triazabenzocyclohepten-4-yl]phenyl}ureido)-N-(2-hydroxy-2-methylpropyl)benzamide] | 7.40 | 6.13 | 927 | – | 69
CCN1CC(C)(C)Oc2nc(N3CCOC[C@@H]3C)nc(-c3ccc(NC(=O)Nc4ccc(F)cc4F)cc3)c2C1=O [Example 191, 1-(2,4-Difluorophenyl)-3-{4-[6-ethyl-8,8-dimethyl-2-((S)-3-methylmorpholin-4-yl)-5-oxo-5,6,7,8-tetrahydro-9-oxa-1,3,6-triazabenzocyclohepten-4-yl]phenyl}urea] | 7.62 | 6.98 | 570 | 26 | –
